# Test results published in patent US10781204B2, “TYK2 inhibitors and uses thereof” (Nimbus Lakshmi, Inc., priority 2015, dated 2020).
# Tests used:
# [1] = tested on: Tyk2-pSTAT4 (IL-12 induced pSTAT4); test: IL-12 induced pSTAT4 in human PBMC; type: cell-based; settings: Homo sapiens, PBMC, 0.5 h, 1.7 ng/mL IL-12, 30 minutes
# Summary of the method: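 Thawed human PBMC (200,000 cells/well, serum-containing medium) preincubated with compound 1 hr at 37 C, 0.1% DMSO final. Stimulated with 1.7 ng/mL IL-12 (final) for 30 minutes; pSTAT4 and total STAT4 in lysates measured by MSD immunoassay.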
# TYK2 = TYK2 (Homo sapiens (Human), UniProt P29597); test: Tyk2 radioactive kinase assay; type: biochemical; settings: ATP 10 μM
# Sequence of TYK2 (P29597 whole entry): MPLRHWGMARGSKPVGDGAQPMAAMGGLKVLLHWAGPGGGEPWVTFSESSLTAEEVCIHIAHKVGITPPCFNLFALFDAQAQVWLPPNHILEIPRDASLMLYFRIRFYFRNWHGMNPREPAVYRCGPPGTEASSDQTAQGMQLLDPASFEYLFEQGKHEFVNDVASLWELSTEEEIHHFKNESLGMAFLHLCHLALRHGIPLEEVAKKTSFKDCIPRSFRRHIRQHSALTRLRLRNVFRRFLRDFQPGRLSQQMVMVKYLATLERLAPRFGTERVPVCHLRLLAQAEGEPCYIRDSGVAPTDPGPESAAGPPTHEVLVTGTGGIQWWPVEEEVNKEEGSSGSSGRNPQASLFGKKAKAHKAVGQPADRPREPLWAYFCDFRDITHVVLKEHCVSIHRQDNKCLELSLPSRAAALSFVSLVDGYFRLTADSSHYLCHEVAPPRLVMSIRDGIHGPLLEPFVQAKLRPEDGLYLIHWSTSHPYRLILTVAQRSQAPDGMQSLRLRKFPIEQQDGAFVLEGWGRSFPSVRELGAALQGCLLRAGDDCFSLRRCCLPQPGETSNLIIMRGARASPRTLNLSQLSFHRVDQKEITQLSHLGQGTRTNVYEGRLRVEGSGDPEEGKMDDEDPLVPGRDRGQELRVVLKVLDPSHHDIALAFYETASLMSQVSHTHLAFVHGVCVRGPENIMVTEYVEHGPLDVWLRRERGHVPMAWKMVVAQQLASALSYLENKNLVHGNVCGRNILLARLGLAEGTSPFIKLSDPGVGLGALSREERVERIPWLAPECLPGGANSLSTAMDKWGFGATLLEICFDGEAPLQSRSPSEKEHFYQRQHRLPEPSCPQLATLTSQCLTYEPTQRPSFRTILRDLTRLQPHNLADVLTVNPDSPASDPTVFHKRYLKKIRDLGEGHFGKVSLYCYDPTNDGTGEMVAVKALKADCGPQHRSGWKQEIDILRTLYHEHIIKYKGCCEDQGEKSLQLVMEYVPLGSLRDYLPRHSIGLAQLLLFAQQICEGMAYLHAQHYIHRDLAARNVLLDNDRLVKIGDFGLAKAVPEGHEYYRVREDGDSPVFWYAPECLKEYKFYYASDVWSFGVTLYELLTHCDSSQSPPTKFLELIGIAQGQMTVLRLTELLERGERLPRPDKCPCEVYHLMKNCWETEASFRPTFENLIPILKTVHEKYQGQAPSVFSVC
# Summary of the method: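 Recombinant human TYK2 (Invitrogen) was mixed with 20 μM peptide substrate in a buffer of 20 mM Hepes pH 7.5, 10 mM MgCl2, 1 mM EGTA, 0.02% Brij35, 0.02 mg/mL BSA, 0.1 mM […], 2 mM DTT and 1% DMSO, and compounds in DMSO were added. Adding ^33P-ATP (10 μM ATP) started the reaction, which ran 120 min at room temperature. Mixtures were then spotted onto P81 ion-exchange paper, washed thoroughly in 0.75% phosphoric acid, and counted for radioactivity.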
# [2] = tested on: JAK2-pSTAT5 (GM-CSF induced pSTAT5); test: GM-CSF induced pSTAT5 in human PBMC; type: cell-based; settings: Homo sapiens, PBMC, 20 min, 5 ng/mL GM-CSF
# Summary of the method: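 Thawed human PBMC, 200,000 per well in serum-containing medium, were preincubated 1 hr at 37 C with compound in 0.1% DMSO. GM-CSF at 5 ng/mL final was added for 20 minutes, then pSTAT5 and total STAT5 in lysates were measured by MSD immunoassay.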
# JAK2 = JAK2 (Homo sapiens (Human), UniProt O60674); test: JAK2 radioactive kinase assay; type: biochemical; settings: ATP 10 μM
# Sequence of JAK2 (O60674 whole entry): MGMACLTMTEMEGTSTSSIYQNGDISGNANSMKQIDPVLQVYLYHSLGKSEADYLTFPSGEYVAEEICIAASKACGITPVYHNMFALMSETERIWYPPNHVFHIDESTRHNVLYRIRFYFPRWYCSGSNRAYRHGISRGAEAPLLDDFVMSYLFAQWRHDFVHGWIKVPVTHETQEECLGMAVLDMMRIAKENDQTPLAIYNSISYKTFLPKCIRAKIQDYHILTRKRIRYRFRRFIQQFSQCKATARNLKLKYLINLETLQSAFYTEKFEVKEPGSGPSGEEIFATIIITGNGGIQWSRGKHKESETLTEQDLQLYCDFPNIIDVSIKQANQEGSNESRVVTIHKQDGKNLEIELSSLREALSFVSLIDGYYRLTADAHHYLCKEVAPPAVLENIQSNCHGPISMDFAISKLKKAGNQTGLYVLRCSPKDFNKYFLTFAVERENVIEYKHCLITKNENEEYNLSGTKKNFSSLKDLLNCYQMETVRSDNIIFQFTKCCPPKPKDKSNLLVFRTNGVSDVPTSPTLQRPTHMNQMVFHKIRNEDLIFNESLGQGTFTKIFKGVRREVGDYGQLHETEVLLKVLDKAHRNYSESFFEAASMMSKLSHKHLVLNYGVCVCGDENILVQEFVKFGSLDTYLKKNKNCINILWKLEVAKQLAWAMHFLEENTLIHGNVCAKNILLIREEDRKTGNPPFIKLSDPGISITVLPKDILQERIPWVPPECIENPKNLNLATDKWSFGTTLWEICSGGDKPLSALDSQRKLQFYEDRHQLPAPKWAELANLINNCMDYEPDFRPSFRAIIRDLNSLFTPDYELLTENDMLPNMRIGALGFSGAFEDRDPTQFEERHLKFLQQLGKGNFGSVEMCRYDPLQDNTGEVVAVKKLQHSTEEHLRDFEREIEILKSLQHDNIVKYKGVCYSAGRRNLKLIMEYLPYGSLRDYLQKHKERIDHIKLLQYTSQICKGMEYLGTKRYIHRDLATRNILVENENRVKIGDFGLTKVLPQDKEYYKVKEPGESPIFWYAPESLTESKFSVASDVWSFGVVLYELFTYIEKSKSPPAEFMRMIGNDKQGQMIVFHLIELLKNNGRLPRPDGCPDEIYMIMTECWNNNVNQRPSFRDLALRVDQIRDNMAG
# Summary of the method: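 Radiometric assay in Hepes pH 7.5, MgCl2, EGTA, Brij35, BSA, DTT, 1% DMSO, with 10 μM [33P]ATP, 120 min at room temp; P81 paper capture and counting. […]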
SMILES,EC50 [1] [nM],Ki (TYK2) [nM],EC50 [2] [nM],Ki (JAK2) [nM]
"N#Cc1cccc(F)c1-c1cc(-n2ccc(N3CCCC(O)C3)n2)c2c(n1)CNC2=O (centres unmarked) [I-65, 3-fluoro-2-(4-(3-(3-hydroxypiperidin-1-yl)-1H-pyrazol-1-yl)-5-oxo-6,7-dihydro-5H-pyrrolo[3,4-b]pyridin-2-yl)benzonitrile]",30 to 100,0.1 to 10,100 to 2000,10 to 100
"N#Cc1cccc(F)c1-c1cc(-n2ccc(N3C[C@H](O)C[C@H]3CO)n2)c2c(n1)CNC2=O [I-214, 3-fluoro-2-(4-(3-((2S,4R)-4-hydroxy-2-(hydroxymethyl)pyro-lidin-1-yl)-1H-pyrazol-1-yl)-5-oxo-6,7-dihydro-5H-pyrrolo[3,4-b]pyridin-2-yl)benzonitrile]",100 to 2000,0.1 to 10,> 2000,10 to 100
"CC1(O)CCCN(c2ccn(-c3cc(-c4c(F)cccc4C#N)nc4c3C(=O)NC4)n2)C1 (centres unmarked) [I-62, 3-fluoro-2-(4-(3-(3-hydroxy-3-methylpiperidin-1-yl)-1H-pyrazol-1-yl)-5-oxo-6,7-dihydro-5H-pyrrolo[3,4-b]pyridin-2-yl)benzonitrile]",100 to 2000,0.009 to 0.1,100 to 2000,10 to 100
"[2H]C1([2H])NC(=O)c2c(-n3ccc(N4CC[C@@H](O)C4)n3)cc(-c3c(F)cccc3C#N)nc21 [I-114, (R)-3-fluoro-2-(4-(3-(3-hydroxypyrrolidin-1-yl)-1H-pyrazol-1-yl)-5-oxo-6,7-dihydro-5H-pyrrolo[3,4-b]pyridin-2-yl-7,7-d2)benzonitrile]",30 to 100,0.1 to 10,100 to 2000,0.1 to 10
"N#Cc1cccc(F)c1-c1cc(-n2ccc(N3CCC[C@@](N)(C(F)(F)F)C3)n2)c2c(n1)CNC2=O [I-118, (S)-2-(4-(3-(3-amino-3-(trifluoromethyl)piperidin-1-yl)-1H-pyrazol-1-yl)-5-oxo-6,7-dihydro-5H-pyrrolo[3,4-b]pyridin-2-yl)-3-fluorobenzonitrile]",30 to 100,0.009 to 0.1,100 to 2000,0.1 to 10
"[2H]C1([2H])NC(=O)c2c(-n3ccc(N4CCC[C@@](C)(O)C4)n3)cc(-c3c(F)cccc3C#N)nc21 [I-111, (R)-3-fluoro-2-(4-(3-(3-hydroxy-3-methylpiperidin-1-yl)-1H-pyrazol-1-yl)-5-oxo-6,7-dihydro-5H-pyrrolo[3,4-b]pyridin-2-yl-7,7-d2)benzonitrile]",30 to 100,0.1 to 10,100 to 2000,10 to 100
"N#Cc1cccc(F)c1-c1cc(-n2ccc(N3CCCC(C(=O)O)C3)n2)c2c(n1)CNC2=O (centres unmarked) [I-91, 1-(1-(2-(2-cyano-6-fluorophenyl)-5-oxo-6,7-dihydro-5H-pyrrolo[3,4-b]pyridin-4-yl)-1H-pyrazol-3-yl)piperidine-3-carboxylic acid]",100 to 2000,0.1 to 10,> 2000,10 to 100
"CC(C)c1csc(-c2cc(-c3c(F)cccc3F)nc3c2C(=O)NC3)n1 [I-233, 2-(2,6-difluorophenyl)-4-(4-isopropylthiazol-2-yl)-6,7-dihydro-5H-pyrrolo[3,4-b]pyridin-5-one]",> 2000,10 to 100,> 2000,≥ 1000
"CCNC(=O)[C@@H]1CCCN(c2ccn(-c3cc(-c4c(F)cccc4C#N)nc4c3C(=O)NC4)n2)C1 [I-172, (R)-1-(1-(2-(2-cyano-6-fluorophenyl)-5-oxo-6,7-dihydro-5H-pyrrolo[3,4-b]pyridin-4-yl)-1H-pyrazol-3-yl)-N-ethylpiperidine-3-carboxamide]",100 to 2000,0.1 to 10,> 2000,10 to 100
"[2H]C1([2H])N(c2ccn(-c3cc(-c4c(F)cccc4C#N)nc4c3C(=O)NC4)n2)C([2H])([2H])[C@]([2H])(O)C1([2H])[2H] [I-208, (R)-3-fluoro-2-(4-(3-(3-hydroxypyrrolidin-1-yl-2,2,3,4,4,5,5-d7)-1H-pyrazol-1-yl)-5-oxo-6,7-dihydro-5H-pyrrolo[3,4-b]pyridin-2-yl)benzonitrile]",100 to 2000,0.1 to 10,> 2000,10 to 100
"N#Cc1cccc(F)c1-c1cc(-n2ccc(N3CCC[C@H](N4CCOCC4)C3)n2)c2c(n1)CNC2=O [I-157, (S)-3-fluoro-2-(4-(3-(3-morpholinopiperidin-1-yl)-1H-pyrazol-1-yl)-5-oxo-6,7-dihydro-5H-pyrrolo[3,4-b]pyridin-2-yl)benzonitrile]",100 to 2000,0.1 to 10,> 2000,10 to 100
"N#Cc1cccc(F)c1-c1cc(-n2ccc(N3CCC[C@@H](N4CCOCC4)C3)n2)c2c(n1)CNC2=O [I-158, (R)-3-fluoro-2-(4-(3-(3-morpholinopiperidin-1-yl)-1H-pyrazol-1-yl)-5-oxo-6,7-dihydro-5H-pyrrolo[3,4-b]pyridin-2-yl)benzonitrile]",100 to 2000,0.1 to 10,> 2000,10 to 100
"N#Cc1cccc(F)c1-c1cc(-n2ccc(N3CCC(O)(C(=O)N4CCCC4)C3)n2)c2c(n1)CNC2=O (centres unmarked) [I-191, 3-fluoro-2-(4-(3-(3-hydroxy-3-(pyrrolidine-1-carbonyl)-pyrrolidin-1-yl)-1H-pyrazol-1-yl)-5-oxo-6,7-dihydro-5H-pyrrolo[3,4-b]pyridin-2-yl)benzonitrile]",100 to 2000,0.1 to 10,100 to 2000,0.1 to 10
"[2H]C1([2H])N(c2ccn(-c3cc(-c4c(F)cccc4C#N)nc4c3C(=O)NC4)n2)C([2H])([2H])C(C)(O)C([2H])([2H])C1([2H])[2H] (centres unmarked) [I-186, 3-fluoro-2-(4-(3-(3-hydroxy-3-methylpiperidin-1-yl-2,2,4,4,5,5,6,6-d8)-1H-pyrazol-1-yl)-5-oxo-6,7-dihydro-5H-pyrrolo[3,4-b]pyridin-2-yl)benzonitrile]",100 to 2000,0.1 to 10,> 2000,10 to 100
"N#Cc1cccc(F)c1-c1cc(-n2ccc(N3CCC4(C3)OCCO4)n2)c2c(n1)CNC2=O [I-100, 2-(4-(3-(1,4-dioxa-7-azaspiro[4.4]nonan-7-yl)-1H-pyrazol-1-yl)-5-oxo-6,7-dihydro-5H-pyrrolo[3,4-b]pyridin-2-yl)-3-fluorobenzonitrile]",30 to 100,0.009 to 0.1,100 to 2000,0.1 to 10
"N#Cc1cccc(F)c1-c1cc(-n2ccc(N3CCC[C@H](C(N)=O)C3)n2)c2c(n1)CNC2=O [I-126, (S)-1-(1-(2-(2-cyano-6-fluorophenyl)-5-oxo-6,7-dihydro-5H-pyrrolo[3,4-b]pyridin-4-yl)-1H-pyrazol-3-yl)piperidine-3-carboxamide]",100 to 2000,0.1 to 10,100 to 2000,10 to 100
"C[C@H]1CC[C@H](O)CN1c1ccn(-c2cc(-c3c(F)cccc3C#N)nc3c2C(=O)NC3)n1 [I-112, 3-fluoro-2-(4-(3-((2S,5S)-5-hydroxy-2-methylpiperidin-1-yl)-1H-pyrazol-1-yl)-5-oxo-6,7-dihydro-5H-pyrrolo[3,4-b]pyridin-2-yl)benzonitrile]",100 to 2000,0.1 to 10,100 to 2000,10 to 100
